We go through 46 compounds from ChEMBL document CHEMBL1156099, “Pyrazolo[1,5-a]pyrimidine-based inhibitors of HCV polymerase” (Bioorg Med Chem Lett, 2009).

Usually IC50 stands for the midpoint of a concentration-inhibition curve.

The structures appear in SMILES notation. Active and inactive are the calls of the source. The calls are words filed in the database; no cut-off is given here.

Assay [1] is described as follows: Inhibition of HCV recombinant NS5B Cdelta21 RdRp expressed in Escherichia coli assessed as [3H]GTP incorporation after 3 hrs by scintillation proximity assay-based RNA polymerase assay. On the set-up: species or system Hepacivirus hominis. For orientation: Scintillation proximity formats need no separation of bound from free tracer.
The test system of another assay is Hepatitis C virus. Kind of assay: Antiviral activity against HCV infected in human hepatoma cells by RNA replicon assay. Type of assay: functional, organism-based. As to conditions: Hepacivirus hominis. A general note: A replicon is a self-replicating genome or part of one, used to study replication in cells.

On to `CC(C)C[C@H](NC(=O)c1cnn2c(C3CCCCC3)c(-c3ccc(F)cc3)cnc12)C(=O)O`, for which the IC50 in assay [1] (read-out: IC50) is 290 nM. On the same count and under the same terms, with `O=C(N[C@H](Cc1ccc(O)cc1)C(=O)O)c1cnn2c(C3CCCCC3)c(-c3ccc(F)cc3)cnc12` the figure was 960 nM. Turning to `O=C(O)c1cnn2c(C3CCCCC3)c(-c3ccc(OCc4ccccc4)cc3)cnc12`, the outcome in the assay on Hepatitis C virus was Active. In addition, the concentration for half-maximal inhibition (IC50) in assay [1] (read-out: IC50) stood at 590 nM.

Turning to `O=C(O)c1ccc2c(c1)nc(-c1ccoc1)n2C1CCCCC1`, in assay [1] (read-out: IC50), the IC50 is 1600 nM. Still for that read-out and setting: the figure for `Cn1nnnc1-c1cnn2c(C3CCCCC3)c(-c3ccc(OCc4ccccc4)cc3)cnc12` is 50000 nM; for `COC(=O)c1cccc(COc2ccc(-c3cnc4c(-c5nnn[nH]5)cnn4c3C3CCCCC3)cc2)c1` it is 220 nM. For `O=C(Nc1nnn[nH]1)c1cnn2c(C3CCCCC3)c(-c3ccc(OCc4ccccc4)cc3)cnc12`, the IC50 in assay [1] (read-out: IC50) is 670 nM. Regarding `c1ccc(COc2ccc(-c3cnc4c(-c5nnn[nH]5)cnn4c3C3CC3)cc2)cc1`, in assay [1], the IC50 result was “Not Active”. For the compound `CS(=O)(=O)c1cccc(-c2ccc(-c3cnc4c(-c5nnn[nH]5)cnn4c3C3CCCCC3)cc2)c1`, the IC50 in assay [1] (read-out: IC50) turned out to be 930 nM.

For the compound `c1cc(COc2ccc(-c3cnc4c(-c5nnn[nH]5)cnn4c3C3CCCCC3)cc2)ccn1`, in assay [1] (read-out: IC50), the IC50 amounted to 710 nM. On the same count and under the same terms, with `c1ccc(COc2ccc(-c3cnc4c(-c5nnn[nH]5)cnn4c3C3CCOCC3)cc2)cc1` the figure was 12000 nM. The same measure, in the same setting: with `c1ccc(Oc2ccc(-c3cnc4c(-c5nnn[nH]5)cnn4c3C3CCCCC3)cc2)cc1` the figure was 400 nM; with `Fc1ccc(-c2cnc3c(-c4nnn[nH]4)cnn3c2C2CCCCC2)cc1F`, 700 nM. For the compound `c1ccc(COc2ccc(-c3cnc4c(-c5nnn[nH]5)cnn4c3-c3ccccc3)cc2)cc1`, in assay [1], the half-inhibitory concentration (IC50) entry is “Not Active”. For `FC(F)(F)c1cccc(COc2ccc(-c3cnc4c(-c5nnn[nH]5)cnn4c3C3CCCCC3)cc2)c1`, in assay [1] (read-out: IC50), the IC50 was 400 nM. As to `NC(=O)c1cnn2c(C3CCCCC3)c(-c3ccc(OCc4ccccc4)cc3)cnc12`, the IC50 entry in assay [1] is “Not Active”. In the case of `c1ccc(COc2ccc(-c3cnc4c(-c5nnn[nH]5)cnn4c3C3CCSCC3)cc2)cc1`, the IC50 in assay [1] (read-out: IC50) worked out at 3400 nM.

For the compound `CC(C)Cc1c(-c2ccc(OCc3ccccc3)cc2)cnc2c(-c3nnn[nH]3)cnn12`, the concentration for half-maximal inhibition (IC50) in assay [1] (read-out: IC50) is 6000 nM. Still for that read-out and setting: with `CS(=O)(=O)c1cccc(Oc2ccc(-c3cnc4c(-c5nnn[nH]5)cnn4c3C3CCCCC3)cc2)c1` the figure was 200 nM; with `O=C(N[C@@H](Cc1c[nH]c2ccccc12)C(=O)O)c1cnn2c(C3CCCCC3)c(-c3ccc(F)cc3)cnc12`, 20 nM. Same read-out and setting: with `c1ccc(COc2ccc(-c3cnc4c(-c5ncn[nH]5)cnn4c3C3CCCCC3)cc2)cc1` the figure was 5700 nM; with `COc1cccc(COc2ccc(-c3cnc4c(-c5nnn[nH]5)cnn4c3C3CCCCC3)cc2)c1`, 600 nM; with `NC(=O)[C@H](Cc1c[nH]c2ccccc12)NC(=O)c1cnn2c(C3CCCCC3)c(-c3ccc(OCc4ccccc4)cc3)cnc12`, 90 nM.

For `Cc1c(-c2ccc(OCc3ccccc3)cc2)cnc2c(-c3nnn[nH]3)cnn12`, the IC50 in assay [1] (read-out: IC50) turned out to be 12500 nM. The same measure, in the same setting: with `CS(=O)(=O)NC(=O)c1cnn2c(C3CCCCC3)c(-c3ccc(OCc4ccccc4)cc3)cnc12` the figure was 1600 nM. On the same count and under the same terms, the figure for `CC(C)CCc1c(-c2ccc(OCc3ccccc3)cc2)cnc2c(-c3nnn[nH]3)cnn12` is 4600 nM; for `O=C(N[C@H](Cc1c[nH]c2ccccc12)C(=O)O)c1cnn2c(C3CCCCC3)c(-c3ccc(F)cc3)cnc12` it is 450 nM. For the compound `OCc1cnn2c(C3CCCCC3)c(-c3ccc(OCc4ccccc4)cc3)cnc12`, the 50% inhibitory concentration (IC50) in assay [1] (read-out: IC50) came out at 12500 nM.

Consider `O=C(N[C@@H](Cc1c[nH]c2ccc(O)cc12)C(=O)O)c1cnn2c(C3CCCCC3)c(-c3ccc(F)cc3)cnc12`, for which the IC50 in assay [1] (read-out: IC50) came to 11 nM. Consider `O=C(N[C@@H](Cc1ccccc1)C(=O)O)c1cnn2c(C3CCCCC3)c(-c3ccc(F)cc3)cnc12`, for which the IC50 in assay [1] (read-out: IC50) was determined as 2000 nM. Same read-out and setting: with `O=C(NS(=O)(=O)c1ccccc1)c1cnn2c(C3CCCCC3)c(-c3ccc(OCc4ccccc4)cc3)cnc12` the figure was 760 nM; with `O=C(O)c1ccc2c(c1)nc(-c1ccc(OCc3ccccc3)cc1)n2C1CCCCC1`, 530 nM. With `O=C(O)c1cc2nc(-c3ccc(Cl)cc3)cc(-c3ccc(Oc4ccccc4)cc3)n2n1`, in assay [1] (read-out: IC50), the IC50 was determined as 6000 nM. On the same count and under the same terms, the figure for `O=C(N[C@@H](Cc1ccc(O)cc1)C(=O)O)c1cnn2c(C3CCCCC3)c(-c3ccc(F)cc3)cnc12` is 20 nM. Still for that read-out and setting: the figure for `c1ccc(-c2ccc(-c3cnc4c(-c5nnn[nH]5)cnn4c3C3CCCCC3)cc2)cc1` is 2800 nM. `NC(=O)[C@H](Cc1ccc(O)cc1)NC(=O)c1cnn2c(C3CCCCC3)c(-c3ccc(F)cc3)cnc12`: in assay [1] (read-out: IC50), the IC50 came out at 24 nM. Still for that read-out and setting: the figure for `COc1cccc(Oc2ccc(-c3cnc4c(-c5nnn[nH]5)cnn4c3C3CCCCC3)cc2)c1` is 400 nM; for `NCCCC[C@H](NC(=O)c1cnn2c(C3CCCCC3)c(-c3ccc(F)cc3)cnc12)C(=O)O` it is 480 nM.

Take `O=S1(=O)CCC(c2c(-c3ccc(OCc4ccccc4)cc3)cnc3c(-c4nnn[nH]4)cnn23)CC1`: in assay [1], the IC50 result is given as “Not Active”. As to `c1cc(-c2cnc3c(-c4nnn[nH]4)cnn3c2C2CCCCC2)ccc1OC1CCCCC1`, the IC50 in assay [1] (read-out: IC50) was found to be 400 nM. Same read-out and setting: the figure for `O=C(NO)c1cnn2c(C3CCCCC3)c(-c3ccc(OCc4ccccc4)cc3)cnc12` is 1900 nM; for `O=C(O)c1ccc(COc2ccc(-c3cnc4c(-c5nnn[nH]5)cnn4c3C3CCCCC3)cc2)cc1` it is 42 nM. Consider `O=C(O)c1cnn2c(C3CCCCC3)c(-c3ccc(F)cc3)cnc12`, for which the outcome in the assay on Hepatitis C virus was Active. Further, in assay [1] (read-out: IC50), the IC50 amounted to 930 nM. Take `COC(=O)c1ccc(COc2ccc(-c3cnc4c(-c5nnn[nH]5)cnn4c3C3CCCCC3)cc2)cc1`: the IC50 in assay [1] (read-out: IC50) worked out at 190 nM.

As for `c1ccc(COc2ccc(-c3cnc4c(-c5nnn[nH]5)cnn4c3C3CCCCC3)cc2)cc1`, the outcome in the assay on Hepatitis C virus was Active. Further, in assay [1] (read-out: IC50), the half-inhibitory concentration (IC50) came out at 450 nM. On to `CC(C)c1c(-c2ccc(OCc3ccccc3)cc2)cnc2c(-c3nnn[nH]3)cnn12`, for which the IC50 in assay [1] (read-out: IC50) is 8600 nM.
